How the values were obtained:
[1] = Swelling test / hydrophobicity of hair fibers; conditions: for diameter variation of the hair after 180 s: 1× bleached tresses
Experimental: The swelling of the hair was measured with a conditioning formulation according to the present invention containing pseudoceramide CeramideBio (leave-on, 0.5 and 0.05%), a conditioning formulation containing Ceramide 2 (leave-on, 0.5% and 0.05%) and a Placebo (leave-on).
Principle: Through diameter measurements it is possible to determine the level of swelling of a hair fiber over time when in contact with water. The swelling test evaluates the action of materials in forming a hydrophobic film on hair surface in order to prevent humidity from penetrating the hair, which in turn provokes the hair diameter variation. The laser measures the variation in the fiber diameter as it absorbs water over a pre-determined time. According to the fiber condition or the film covering its surface, the level of swelling may change. The more damaged the hair, the more hydrophilic it is, since most of the hair damages take the lipids, ceramides and other hydrophobic substances away from the hair, and, consequently, more swelling is noticed. Parameter measured: variation in hair diameter (%).
Swelling Test: • 3 Caucasian hair tresses (2.5 g, 25 cm, 1× bleached) were cleaned with a sodium laureth sulfate solution (SLES) (10%) for 1 minute; • Test samples (see above) were applied to each tress (0.25 ml of sample; massaging for 1 minute); • Tresses were left for drying at controlled environment (22±2° C.; 50±5% RH) overnight; • 45 fibers from each treatment were collected randomly and fixed in plastic tabs one by one; • Swelling test was performed during 180 s; • Variation on fiber's diameter was calculated; • Comparisons among treatments were performed using one-way variance analysis (ANOVA), followed by Tukey's honestly significant difference (HSD) test, at a 95% confidence interval.

[2] = Hair shine/luster evaluation (SAMBA system)
Experimental: The hair luster was measured with a shampoo formulation according to the present invention containing pseudoceramide CeramideBio (shampoo, 1.0%), a shampoo formulation containing Ceramide 2 (shampoo, 1%) and a Placebo (shampoo).
Principle: Hair luster test analyzes the light reflection from the hair surface and other interactions of the incident light with the hair. The measurement is made by using SAMBA system. The results are expressed by luster: parameter calculated from values of shine, chroma and diffused light to express the observer perception of the gloss effect. The higher is the value, the best impression of the observer regarding gloss effect of the hair. […]

[3] = Solubility: visual appearance of shampoo formulations; type: physicochemical; conditions: 0.1 in shampoo, surfactant approx. 14%; after preparation, after 3 days at 5° C. and 3 days at room temperature
Experimental: The solubility of the pseudoceramide CeramideBio in shampoo is evaluated in comparison to Ceramide 2 and Ceramide 3.
Shampoo Formulations: • Surfactant content: Approx. 14% 01
The shampoo formulations were prepared as follows: Phase A components were blended by gentle stirring; the process was stopped, when foaming starts.
The ceramides/pseudoceramide were predispersed in polyglyceryl-4-caprate and heated up to 90° C. The ceramides/pseudoceramide were melted and finely dispersed. Ucare Polymer JR-400 and water were added and the mixture was heated up to 90° C. again and stirred for 10 minutes.
Phases B, C and D were added to phase A one after the other by stirring. After that, the mixture was stirred slowly with a vane stirrer until the solution was homogeneous. At last Phase E was added by stirring with a vane stirrer. The pH value was adjusted to about 5.4 to 5.8.
The visual appearance of the shampoo formulations was evaluated after preparation, after 3 days storage at 5° C. and 3 day at room temperature.
The visual appearance of the shampoo formulations is depicted in FIG. 1. From left to the right: Sample CeramideBio (01_B), Ceramide 2 (02_B), Ceramide 3 (03_B).

| Compound | diameter variation of the hair after 180 s compared to conditioning formulation with Ceramide 2 ([1]; leave-on conditioning formulation) | diameter variation of the hair after 180 s ([1]; leave-on conditioning formulation, higher concentration (0.5%)) [%] | diameter variation of the hair after 180 s ([1]; leave-on conditioning formulation, lower concentration (0.05%)) [%] | hair fiber swelling / hydrophobicity versus non-treated hair, placebo and leave-on with 0.05% Ceramide 2 ([1]; leave-on formulation containing 0.05%) | effect on hair luster ([2]; shampoo formulation containing 1.0%) | luster of the hair compared to shampoo formulation with Ceramide 2 ([2]; shampoo, 1.0%, applied 5 times, 3× bleached tresses) | recrystallization in shampoo formulation (visual appearance) [3] |
| --- | --- | --- | --- | --- | --- | --- | --- |
| CCCCCCCCCCCCCCCCOC(=O)[C@@H]1C[C@@H](O)CN1C(=O)CCCCCCCCCCCCCCC [CeramideBio, Cetylhydroxyproline palmitamide] | smaller | 15.90 | 14.44 | statistically decreasing its swelling | able to increase hair luster | higher | without recrystallization |
| CCCCCCCCCCCCCCCCCC(=O)N[C@@H](CO)[C@H](O)CCCCCCCCCCCCCCC [Ceramide 2] | – | – | – | – | – | – | showed recrystallization |
| CCCCCCCCCCCCCCCCCCCCCCCC(=O)N[C@@H](CO)[C@H](O)C(O)CCCCCCCCCCCCCC (stereo partly drawn) [Ceramide 3] | – | – | – | – | – | – | showed recrystallization |

Reference: patent publication US20230329994A1, “Surfactant Containing Formulation of Pseudo-Ceramides” (Symrise AG, priority 2020, published 2023)
